For assay [1], the system named is HSC-depleted mice (liver). In words: Treatment of HSC-depleted mice with recombinant NTF3. In kind it is in vivo, mouse. Here is the method:
T cell isolation and adoptive transfer. CD8+ T cells were isolated from spleen and lymph nodes (brachial, inguinal, axillar, submandibular, superficial cervical and mesenteric) of Jedi and controls. Spleens and lymph nodes were collected in ice cold T cell media (RPMI [Gibco® 11875-093] supplemented by 10% FBS, 2 mM L-glutamine [Thermo Fisher Scientific, Waltham, MA; 25030-081], 1% MEM nonessential amino acids [Thermo Fisher Scientific, Waltham, MA; 11140050] and 1 mM sodium pyruvate [Thermo Fisher Scientific, Waltham, MA; 11360-070]). Spleen and lymph nodes were mechanically homogenized and filtered through a 70 μm cell strainer (Falcon®). The cell suspension was centrifuged for 10 min at 4° C., 300 g. Red blood cell (RBC) lysis was performed with RBC buffer (Thermo Fisher Scientific, Waltham, MA; A10492). Cells were then washed with T cell media, filtered through a 70 μm cell strainer and centrifuged for 10 min at 4° C., 300 g. The cell pellet was then resuspended in flow buffer (PBS, pH 7.4, 2 mM EDTA, 0.05% BSA) and CD8+ T cells enriched using the mouse CD8+ T cell isolation kit (STEMCELL technologies, Vancouver, Canada; 19853A) according to the manufacturer's instructions. Enriched CD8+ T cells were centrifuged for 10 min at 4° C., 300 g, and resuspended in PBS. Mice with less than 25 g body weight were injected with up to 12 million Jedi T cells and mice greater than 25 g body weight were injected by tail vein injection with 18 million Jedi T cells. Control mice were injected with either T cells from H-2K^d mice or with vehicle only. Mice were not injected with lentiviral GFP particles as previously described (Agudo et al., Nat Biotechnol. 2015; 33(12): 1287-1292; Agudo et al., 2018; 48(2): 271-285.e5) to avoid lentiviral GFP-expression of other cells such as hepatocytes.
Treatment with recombinant NTF3. Four months old mice were injected via tail vein for 4 consecutive days with recombinant NTF3 (STEMCELL technology, Vancouver, Canada; cat. 78074, lots 1000070683, 1000077434) diluted in sterile 0.9% saline (0.9% NaCl) or vehicle only. Mice were weighed daily and recombinant NTF3 given at 20 ng/g body weight or 100 ng/g body weight, respectively. Lyophilized NTF3 was solubilized in 0.1% BSA/PBS (bovine serum albumin, Sigma-Aldrich, St. Louis, MO; A3059) and stored at −80° C. until use.
Immunohistochemistry. For immunohistochemistry, formalin-fixed paraffin embedded sections were cut at 4 μm thickness and slides incubated at 65° C. for 30 min. Slides were deparaffinized in Histo-Clear® (National Diagnostics, Charlotte, NC; HS2001GLL) and rehydrated by an ethanol gradient. Heat antigen retrieval was performed in 10 mM sodium citrate (pH 6.0) in a pressure cooker (Cuisinart®, CPC-600C), 20 min at high-pressure, natural pressure release for 30 min, and cooled at room temperature (i.e., about 20° C. to about 22° C.) for 30 min. Endogenous peroxidase quenching was performed with 1.5% hydrogen peroxide (Sigma-Aldrich, St. Louis, MO; H1009) for 20 min, and slides washed twice in phosphate buffered saline (PBS) twice. Blocking was performed for 30 min with Protein Block, Serum-free (Agilent, Santa Clara, CA; X090930-2). The primary antibody (TABLE 1) was diluted in antibody diluent (Agilent, Santa Clara, CA; S080983-2) and applied to the slides in a wet chamber overnight at 4° C. After 2 washes in PBS, slides were incubated with the appropriate secondary antibody (TABLE 1) for 30 min followed by two washes in PBS. […] The same reveal time was then used on all experimental slides. Slides were stained with hematoxylin (Sigma-Aldrich, St. Louis, MO; GHS332) for 30 sec, washed gently in lukewarm tap water for 5 min, and washed twice in distilled water, followed by two washes in phosphate buffered saline (PBS, pH 7.4). Slides were washed in increasing ethanol/water gradients, followed by three washes in Histo-Clear®. […]

Assay [2] relates to P-TRKA Tyr674/675, P-TRKB Tyr706/707. Description: Western blot of phosphorylated TRK in HepG2 cell lysates. The assay is classed as cell-based, human. To be noted: HepG2, NTF3 (FIG. 9G-H). How it is done: Human HepG2 and mouse AML12 cells were grown in 6-well plates. […] Lyophilized NTF3 was solubilized with sterile filtered PBS supplemented with 0.1% BSA, aliquoted and stored at −80° C. until use. […] Cell lysates were sonicated and centrifuged for 10 min at 18,800×g. Protein concentration of supernatants were determined by Direct Detect Spectrophotometer (MilliporeSigma, Burlington, MA).
For immunoblot analysis, 30-50 μg of protein diluted in LSD sample buffer (Invitrogen, Waltham, MA) were analyzed per SDS-PAGE (NuPAGE™, Invitrogen, Waltham, MA) using MOPS buffer or MES buffer (Invitrogen, Waltham, MA). Gels were stained with Coomassie (Bio-Safe Coomassie G-250 Stain, Bio-Rad, Hercules, CA) and transferred onto PVDF membranes using semi-dry blotting (Trans-Blot SD, Bio-Rad, Hercules, CA). Images were visualized on an Amersham™ Imager 680 (Cytiva, Marlborough, MA).
In general terms: In western blotting, separated proteins are transferred to a membrane and probed.

Consider “NTF3: neurotrophin-3, recombinant protein; HSC-derived hepatocyte mitogen, ligand of TRKA, TRKB, TRKC”, for which the “IGFBP2 expression in hepatocytes” value in assay [1] (HSC-ablated mice, NTF3) is “only increased CCND1 but not IGFBP2 expression”. In assay [1] (HSC-depleted mice, NTF3 20 ng/g or 100 ng/g body weight, tail vein, 4 consecutive days (FIG. 10C)), the liver-to-body weight ratio result is “dose-dependently increased”. The “liver-to-body weight ratio, higher dose group” value in assay [1] (HSC-depleted mice, NTF3 100 ng/g body weight, 4 consecutive days) is on record as “significant increase”. Further, in assay [1] (HSC-depleted mice, NTF3 20 or 100 ng/g (FIG. 10E-F)), the “number of CCND1+HNF4a+ nuclei (multiplex immunohistochemistry)” value is “dose-dependently increased”. Further, in assay [1] (HSC-depleted mice, NTF3 vs vehicle (FIG. 10D)), the “nuclear CCND1 in hepatocytes in the midlobular region (staining)” value is “increased nuclear CCND1”. Further, the “Ki67+ hepatocytes” value in assay [1] (HSC-depleted mice, NTF3 vs vehicle (FIG. 10G-H)) is given as “increase”. In addition, the “PCNA in whole liver lysates (Western blotting)” value in assay [1] (HSC-depleted mice, NTF3 vs vehicle (FIG. 10I, 11B)) was “increased”. Besides, the “CCND1 in whole liver lysates (Western blotting)” value in assay [1] (HSC-depleted mice, NTF3 vs vehicle (FIG. 10I, 11C)) is “increased”. Also, the “TRK phosphorylation (P-TRKA Tyr674/675, P-TRKB Tyr706/707)” value in assay [2] is on record as “Increased TRK phosphorylation”.
